Laboratory results taken from paper PMC8599359 (Molecular Neurobiology, 2021).
pIC50: −log10 of the molar value.

Legend:
[1] = molecular target: T1, MMP-2 (Homo sapiens, UniProt P08253); test: Gelatin zymography of medium of PMA-stimulated THP-1 cells; type: cell-based; details: 100 µM, 18 h, compared to controls
T1 sequence (P08253 110-660): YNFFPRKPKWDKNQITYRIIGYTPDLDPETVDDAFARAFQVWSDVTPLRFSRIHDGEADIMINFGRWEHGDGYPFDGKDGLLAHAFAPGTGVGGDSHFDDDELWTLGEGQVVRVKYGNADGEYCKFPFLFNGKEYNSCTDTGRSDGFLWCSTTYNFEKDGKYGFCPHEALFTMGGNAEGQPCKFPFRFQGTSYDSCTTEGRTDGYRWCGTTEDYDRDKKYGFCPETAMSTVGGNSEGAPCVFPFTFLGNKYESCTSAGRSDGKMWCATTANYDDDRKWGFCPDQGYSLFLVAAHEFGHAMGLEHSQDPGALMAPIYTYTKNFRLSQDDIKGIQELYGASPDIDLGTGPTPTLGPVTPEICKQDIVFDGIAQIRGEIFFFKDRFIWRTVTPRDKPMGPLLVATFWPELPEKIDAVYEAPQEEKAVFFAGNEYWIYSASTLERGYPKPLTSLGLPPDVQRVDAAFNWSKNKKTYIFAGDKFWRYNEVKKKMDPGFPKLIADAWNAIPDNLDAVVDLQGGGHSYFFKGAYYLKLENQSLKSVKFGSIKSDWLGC
Description: THP-1 cells were plated in 12-well plates at a density of 1 × 10^6 cells per well. First, THP-1 were treated with phorbol-12-myristate-13-acetate (PMA) for 24 h to promote the differentiation of cells into macrophages and stimulate MMP secretion. […] For each treatment, biological triplicate samples were utilized. Following treatment, cell medium was collected from each well and centrifuged at 800 × g for 10 min at 4 °C to remove any cell debris. Collected samples were stored at − 80 °C for further analysis. A 10% SDS–polyacrylamide gel containing 0.1% gelatin was loaded with 3 µg of protein from cell medium for gelatin zymography. In parallel, second 10% SDS–polyacrylamide gel was used to assess equal protein loading. In addition, recombinant human MMP-2 and MMP-9 (10 ng each) were loaded as standards (EMD Millipore, Burlington, MA). Gel ran at 60 V until the loading dye reached the bottom of the gel. After the run, the gelatin gel was washed with water for 15 min and incubated in renaturation buffer [2.5% (v/v) Triton X-100 in Milli-Q water] for 60 min at room temperature. The renaturation buffer was replaced with a fresh renaturation buffer at the interval of 30 min. […] Relative activity of MMPs was measured by quantitating band density by ImageJ software and normalized with respective standard.

[2] = tested on: infants born to women receiving DTG at conception; details: cited from earlier work
[3] = PK and BD of DTG during pregnancy; type: in vivo, mouse; details: for Kp: C3H/HeJ, mouse, oral, 50 mg/kg
Source text: Drug administration was started at the day of plug detection (GD 0.5) and continued up to the day of birth of pups. Blood samples were collected from dams into heparinized tubes by cheek puncture (submandibular vein) using a 5-mm lancet (MEDIpoint, Inc., Mineola, NY) at GD 8.5 and 16.5 and postnatal days (PND) 4, 12, and 21 for plasma collection. […] Each sample (plasma or tissue) evaluated for DTG levels was randomly selected from distinct litters.
DTG was purchased from BOC Sciences (Shirley, NY). […]
PK and BD of DTG during pregnancy
DTG levels were quantitated in plasma, and tissue homogenates by ultraperformance liquid chromatography tandem mass spectrometry (UPLC-MS/MS). […]
ml of acetonitrile (ACN) and 10 µl of internal standard (IS) solution were added to 2 5 µl of plasma.
DTG-d3 at a final concentration of 50 ng/m l ser ved as the IS. Samples were vortexed and centrifuged at 17,000×g for 10 min at 4 °C. Supernatants were dried using a speed- vac and reconstituted in 100 µl 50% (v/v) ACN in water. The samples were vortexed and centrifuged at […]
analysis, 50– 200 mg of tissue (placenta, fetal brain) was homogenized in 9 volumes of 90% (v/v) methanol (MeOH) in water using a Qiagen TissueLyzer II (Valencia, CA). Subsequently, 280 µl o f MeOH, 10 µl of 80% (v/v) MeOH in water, and 10 µl IS were added to 100 µl of tissue homogenate.
Samples were then vortexed, left for 5 min on ice and centrifuged at 17,000 × g and 4 °C for 15 min. Twenty µl of supernatant was mixed with 80 µl of 50% (v/v) ACN in water. The samples were centrifuged at 17,000 × g at 4 °C f or 10 m in and the supernatant was used for analysis. Standard

[4] = molecular target: HIV-1 integrase; details: read-out: IC50 as INSTI; cited from earlier work

C[C@@H]1CCO[C@H]2Cn3cc(C(=O)NCc4ccc(F)cc4F)c(=O)c(O)c3C(=O)N12 [DTG, Dolutegravir]
Relative activity of pro and active forms of MMP-2 [1]: significantly decreased
overall clinical prevalence of NTDs among infants born to women receiving DTG at conception [2]: ~ 0.3%
risk of NTDs relative to other ARTs at conception ([2]; extended surveillance in Botswana): 2–3 times
plasma drug levels in pregnant dams relative to maximal DTG concentration (Cmax) in human plasma at therapeutic doses ([3]; 50 mg/kg daily): 10 ×
Kp ([3]; embryo brain / dam plasma, GD 16.5): 0.024
Kp ([3]; pup brain / dam plasma, PND 4): 0.038
DTG concentration in plasma of dams ([3]; GD 8.5, 50 mg/kg daily oral gavage from GD 0.5): 38,628.63 ± 4855.53 ng/mL
ratio of embryo brain DTG levels to placenta DTG levels ([3]; GD 16.5): 0.18
DTG concentration in placental tissue ([3]; GD 16.5, 50 mg/kg daily oral): 3528.04 ± 316.56 ng/g
DTG concentration in plasma of dams ([3]; GD 16.5, 50 mg/kg daily oral gavage from GD 0.5): 27,296.3 ± 2701.15 ng/mL
DTG concentration in embryonic brain tissue ([3]; GD 16.5, 50 mg/kg daily oral to dam): 663.6 ± 75.13 ng/g
DTG concentration in brain tissue of pups ([3]; PND 4): 48.1 ± 2.35 ng/g
DTG concentration in plasma of dams ([3]; PND 4, dosing stopped at birth of pups): 1244.2 ± 623.20 ng/mL
DTG concentration in plasma of dams ([3]; PND 12, dosing stopped at birth of pups): 48.95 ± 7.39 ng/mL
DTG concentration in plasma of dams ([3]; PND 21, dosing stopped at birth of pups): 21.97 ± 2.42 ng/mL
DTG level in pup's brain predicted from dam plasma/embryo brain ratio (detection limit) ([3]; PND 28, after cessation of dosing at birth): < 0.1 ng/g
Kp ([3]; female, placenta / dam plasma, GD 16.5): 0.12
pIC50 [4]: 8.57
